Measurements published in PubChem BioAssay AID743304 (Broad Institute, 2014).
Where “and” joins values, the source holds several entries; their conditions need not be identical. Equal entries are not always repeated. Calls of active or inactive are those of the source.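 How the source made its calls: active means signal drop whose fitted half-maximal dose is no more than twice the top valid dose; inconclusive means flat curve with 30 to 70% inhibition, or unreliable fit; inactive means the rest, including rising signal.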

tested on: not listed separately; test: C. neoformans growth inhibition with sorbitol, dose response, mechanism study for C. neoformans lysis project, alamar blue, dry powder, set 3 (AID 743304); details: C. neoformans growth with sorbitol, alamar blue, 24 h; at 35 µM (top of the series)

SMILES	activity change, negative = inhibition
Cc1cccc(OCCn2c(=S)[nH]c3cc(C(F)(F)F)ccc32)c1	8.97% (inactive)
c1ccc(OCCn2cnc3ccccc32)cc1	39.4% (inactive)
CC(C)c1ccccc1NCCn1c(=S)[nH]c2ccccc21	1.72% (inactive)
Cc1cccc(OCCn2c(=S)[nH]c3ccc(C(F)(F)F)cc32)c1	24.8% (inactive)
S=c1[nH]c2cc(Cl)ccc2n1CCOc1ccccc1	17.6% (inactive)
Cc1ccc(C)c(OCCn2c(=S)[nH]c3ccccc32)c1	-7.02% (inactive)
Cc1ccc(C(C)C)c(OCCn2c(=S)[nH]c3c(F)cccc32)c1	48.2% (inactive)
Cc1ccc(C(C)C)c(OCCn2c(=S)[nH]c3ccc(Cl)cc32)c1	36.9% (inactive)
Cc1ccc(C(C)C)c(OCCn2c(=S)[nH]c3cc(F)ccc32)c1	9.32% (inactive)
Cc1ccc(C(C)C)c(OCCn2c(=S)[nH]c3c(Cl)cccc32)c1	-14.9% (inactive)
COc1ccccc1OCCn1c(=S)[nH]c2ccccc21	36.1% (inactive)
Cc1ccc(C(C)C)c(OCCn2c(=S)[nH]c3ccc(F)cc32)c1	14.7% (inactive)
Cc1ccc(C(C)C)c(OCCn2c(=S)[nH]c3c(C)cccc32)c1	34.1% (inactive)
Cc1ccc(OCCn2c(=S)[nH]c3ccccc32)c(C)c1	7.99% (inactive)

tested on: C. neoformans growth with sorbitol, alamar blue, 24 h; test: as above; details: not given

SMILES	AC50
Fc1ccccc1OCCn1c(=S)[nH]c2ccccc21	21.9 µM
COc1ccc(OCCn2c(=S)[nH]c3ccccc32)cc1	26.2 µM
CC(C)(C)c1ccc(OCCn2c(=S)[nH]c3ccccc32)cc1	4.94 µM
S=c1[nH]c2cccc(Cl)c2n1CCOc1ccccc1	5.74 µM and 5.16 µM
Cc1ccc(OCCn2c(C)nc3ccccc32)cc1	6.48 µM
Cc1ccccc1OCCn1c(=S)[nH]c2ccccc21	31.2 µM
S=c1[nH]c2ccccc2n1CCOc1ccccc1Cl	24 µM
Cc1cccc2[nH]c(=S)n(CCOc3ccccc3)c12	14.2 µM
Cc1ccc(C(C)C)c(OCCn2c(=S)[nH]c3cccc(Cl)c32)c1	7.25 µM
Cc1ccc(C(C)C)c(OCCn2c(=S)[nH]c3ccccc32)c1	6.96 µM and 7.67 µM
Cc1ccc(OCCn2c(=S)[nH]c3ccccc32)c(C(C)C)c1	10.2 µM and 6.37 µM
S=c1[nH]c2ccccc2n1CCOc1ccccc1	24.5 µM
O=c1[nH]c2ccccc2n1CCOc1ccccc1	24.1 µM
Cc1ccc2c(c1)[nH]c(=S)n2CCOc1ccccc1	11.6 µM and 12.9 µM
Cc1ccc(OCCn2c(SCCO)nc3ccccc32)c(C(C)C)c1	8.48 µM
Cc1ccc(C(C)C)c(OCCn2c(CO)nc3ccccc32)c1	33.6 µM
CC(C)(C)c1ccc(OCCn2cnc3ccccc32)cc1	8.05 µM
Cc1ccc(OCCn2cnc3ccccc32)cc1	5.96 µM
Fc1cccc(OCCn2c(=S)[nH]c3ccccc32)c1	20.5 µM

SMILES	AC50
Cc1ccc(C(C)C)c(OCCn2c(=S)[nH]c3cccc(C)c32)c1	16.4 µM
CC(C)c1ccccc1OCCn1c(=S)[nH]c2ccccc21	18.4 µM
Cc1ccc(OCCn2c(=S)[nH]c3ccccc32)cc1	6.11 µM
Fc1ccc(OCCn2c(=S)[nH]c3ccccc32)cc1	27.3 µM
Fc1ccc2c(c1)[nH]c(=S)n2CCOc1ccccc1	25 µM and 23.1 µM
CC(C)(C)c1ccccc1OCCn1c(=S)[nH]c2ccccc21	8.32 µM
Cc1cccc(OCCn2c(=S)[nH]c3cc(F)ccc32)c1	11.2 µM and 10.4 µM
S=c1[nH]c2ccccc2n1CCOc1ccc(Cl)cc1	6.3 µM
Fc1cccc2c1[nH]c(=S)n2CCOc1ccccc1	21.4 µM and 22.2 µM and 23.1 µM
CC(C)c1ccc(OCCn2c(=S)[nH]c3ccccc32)cc1	4.21 µM
CCOc1ccc(OCCn2c(=S)[nH]c3ccccc32)cc1	11.1 µM
Cc1cccc(OCCn2c(=S)[nH]c3ccccc32)c1C	6.75 µM
Cc1ccc(OCCn2cnc3ccccc32)c(C(C)C)c1	24 µM
Fc1ccc2[nH]c(=S)n(CCOc3ccccc3)c2c1	23.5 µM
COc1cccc(OCCn2c(=S)[nH]c3ccccc32)c1	26.1 µM
Cc1ccc(C(C)C)c(OCCn2c(=S)[nH]c3cccc(F)c32)c1	10.9 µM
Cc1cccc(OCCn2c(=S)[nH]c3c(F)cccc32)c1	16.4 µM and 16.6 µM
Cc1cccc(OCCn2c(=S)[nH]c3ccccc32)c1	22.4 µM
